Experimental data reported in PubChem BioAssay AID1259407 (Chemical Carcinogenesis Research Information System (CCRIS), 2018).
The source made the active and inactive calls. How the calls were made is not given here.

Tested on: CCRIS mutagenicity, Ames/micronucleus/aberration tests
Assay: CCRIS mutagenicity studies
[1] = Test System: AMES SALMONELLA TYPHIMURIUM, Strain/Indicator: TA98, Metabolic Activation: NONE, Method: STANDARD PLATE
[2] = Test System: AMES SALMONELLA TYPHIMURIUM, Strain/Indicator: TA100, Metabolic Activation: NONE, Method: STANDARD PLATE

O=[N+]([O-])c1ccc2c(ccc3ccccc32)c1
mutagenic call (Test System: AMES SALMONELLA TYPHIMURIUM, Strain/Indicator: TA98(1,8-DNP6), Metabolic Activation: NONE, Method: STANDARD PLATE): active; positive
mutagenic call (Test System: AMES SALMONELLA TYPHIMURIUM, Strain/Indicator: TA98(NR), Metabolic Activation: NONE, Method: STANDARD PLATE): active; positive
mutagenic call (Test System: AMES SALMONELLA TYPHIMURIUM, Strain/Indicator: TA98, Metabolic Activation: NONE, Method: PREINCUBATION): active; positive
mutagenic call [1]: active; positive
mutagenic call (Test System: AMES SALMONELLA TYPHIMURIUM, Strain/Indicator: TA98, Metabolic Activation: RAT, LIVER, S-9, PCB (10%), Method: PREINCUBATION): active; positive
mutagenic call (Test System: AMES SALMONELLA TYPHIMURIUM, Strain/Indicator: TA7001, Metabolic Activation: NONE, Method: PREINCUBATION): active; positive
mutagenic call (Test System: AMES SALMONELLA TYPHIMURIUM, Strain/Indicator: TA7002, Metabolic Activation: NONE, Method: PREINCUBATION): active; positive
mutagenic call (Test System: AMES SALMONELLA TYPHIMURIUM, Strain/Indicator: TA7003, Metabolic Activation: NONE, Method: PREINCUBATION): active; positive
mutagenic call (Test System: AMES SALMONELLA TYPHIMURIUM, Strain/Indicator: TA7004, Metabolic Activation: NONE, Method: PREINCUBATION): active; positive
mutagenic call (Test System: AMES SALMONELLA TYPHIMURIUM, Strain/Indicator: TA7005, Metabolic Activation: NONE, Method: PREINCUBATION): active; positive
mutagenic call (Test System: AMES SALMONELLA TYPHIMURIUM, Strain/Indicator: TA7006, Metabolic Activation: NONE, Method: PREINCUBATION): active; positive

CCOC(=O)c1[nH]c2ccccc2c1N=Cc1ccc([N+](=O)[O-])cc1
mutagenic call (Test System: AMES SALMONELLA TYPHIMURIUM, Strain/Indicator: TA97, Metabolic Activation: NONE, Method: STANDARD PLATE): inactive; negative
mutagenic call (Test System: AMES SALMONELLA TYPHIMURIUM, Strain/Indicator: TA97, Metabolic Activation: RAT, LIVER, S-9, AROCLOR 1254, Method: STANDARD PLATE): inactive; negative
mutagenic call [1]: inactive; negative
mutagenic call (Test System: AMES SALMONELLA TYPHIMURIUM, Strain/Indicator: TA98, Metabolic Activation: RAT, LIVER, S-9, AROCLOR 1254, Method: STANDARD PLATE): active; positive
mutagenic call [2]: inactive; negative
mutagenic call (Test System: AMES SALMONELLA TYPHIMURIUM, Strain/Indicator: TA100, Metabolic Activation: RAT, LIVER, S-9, AROCLOR 1254, Method: STANDARD PLATE): inactive; negative
mutagenic call (Test System: AMES SALMONELLA TYPHIMURIUM, Strain/Indicator: TA102, Metabolic Activation: NONE, Method: STANDARD PLATE): inactive; negative
mutagenic call (Test System: AMES SALMONELLA TYPHIMURIUM, Strain/Indicator: TA102, Metabolic Activation: RAT, LIVER, S-9, AROCLOR 1254, Method: STANDARD PLATE): inactive; negative

CC1=C(Cl)C(=O)NC1=O
mutagenic call [2]: inactive; negative

CC/C(=C(/CC)c1ccc(OP(=O)(O)O)cc1)c1ccc(OP(=O)(O)O)cc1
mutagenic call [1]: inactive; negative
mutagenic call [2]: inactive; negative
mutagenic call (Test System: E. COLI, Strain/Indicator: WP2 (HCR), Metabolic Activation: NONE, Method: STANDARD PLATE): inactive; negative

CN(C)CCNC(=O)c1cccc2c(=O)c3ccccc3[nH]c12
mutagenic call (Test System: AMES SALMONELLA TYPHIMURIUM, Strain/Indicator: TA1537, Metabolic Activation: NONE, Method: STANDARD PLATE): active; positive

C1=CCCCC1
mutagenic call [1]: inactive; negative
mutagenic call (Test System: AMES SALMONELLA TYPHIMURIUM, Strain/Indicator: TA98, Metabolic Activation: RAT LIVER S-9, SOVOL, Method: STANDARD PLATE): inactive; negative
mutagenic call [2]: inactive; negative
mutagenic call (Test System: AMES SALMONELLA TYPHIMURIUM, Strain/Indicator: TA100, Metabolic Activation: RAT LIVER S-9, SOVOL, Method: STANDARD PLATE): inactive; negative
mutagenic call (Test System: Ames Salmonella typhimurium, Strain/Indicator: TA98, Metabolic Activation: None, Method: Preincubation): inactive; negative
mutagenic call (Test System: Ames Salmonella typhimurium, Strain/Indicator: TA98, Metabolic Activation: Rat, Liver, S9, Sodium phenobarbital and 5,6-benzoflavone (10%), Method: Preincubation): inactive; negative
mutagenic call (Test System: Ames Salmonella typhimurium, Strain/Indicator: TA100, Metabolic Activation: None, Method: Preincubation): inactive; negative
mutagenic call (Test System: Ames Salmonella typhimurium, Strain/Indicator: TA100, Metabolic Activation: Rat, Liver, S9, Sodium phenobarbital and 5,6-benzoflavone (10%), Method: Preincubation): inactive; negative
mutagenic call (Test System: Ames Salmonella typhimurium, Strain/Indicator: TA1535, Metabolic Activation: None, Method: Preincubation): inactive; negative
mutagenic call (Test System: Ames Salmonella typhimurium, Strain/Indicator: TA1535, Metabolic Activation: Rat, Liver, S9, Sodium phenobarbital and 5,6-benzoflavone (10%), Method: Preincubation): inactive; negative
mutagenic call (Test System: Ames Salmonella typhimurium, Strain/Indicator: TA1537, Metabolic Activation: None, Method: Preincubation): inactive; negative
mutagenic call (Test System: Ames Salmonella typhimurium, Strain/Indicator: TA1537, Metabolic Activation: Rat, Liver, S9, Sodium phenobarbital and 5,6-benzoflavone (10%), Method: Preincubation): inactive; negative
mutagenic call (Test System: Ames Salmonella typhimurium, Strain/Indicator: TA2637, Metabolic Activation: None, Method: Preincubation): active; positive
mutagenic call (Test System: Ames Salmonella typhimurium, Strain/Indicator: TA2637, Metabolic Activation: Rat, Liver, S9, Sodium phenobarbital and 5,6-benzoflavone (10%), Method: Preincubation): inactive; negative
mutagenic call (Test System: E. coli, Strain/Indicator: WP2uvrA/pKM101, Metabolic Activation: None, Method: Preincubation): inactive; negative
mutagenic call (Test System: E. coli, Strain/Indicator: WP2uvrA/pKM101, Metabolic Activation: Rat, Liver, S9, Sodium phenobarbital and 5,6-benzoflavone (10%), Method: Preincubation): inactive; negative

CCNC(=O)NC(=O)/C(C#N)=N/OC
mutagenic call (End Point: In vitro chromosomal aberrations, Test System: Human lymphocytes, Metabolic Activation: None): active; positive (structural changes)
mutagenic call (End Point: In vitro chromosomal aberrations, Test System: Human lymphocytes, Metabolic Activation: S-9 (DPR evaluator did not provide additional details)): active; positive (structural changes)
mutagenic call (End Point: In vivo micronucleus, Test System: Bone marrow polychromatic erythrocytes, Species: Mouse, Strain/Sex: Female, Route: Oral (gavage)): inactive; negative, significant toxicity (m and f) and early deaths (f only) as high dose
mutagenic call (End Point: In vivo micronucleus, Test System: Bone marrow polychromatic erythrocytes, Species: Mouse, Strain/Sex: Male, Route: Oral (gavage)): inactive; negative, significant toxicity (m and f) and early deaths (f only) as high dose
mutagenic call (Test System: Ames Salmonella typhimurium, Strain/Indicator: TA97, Metabolic Activation: None, Method: Plate incorporation): inactive; negative, testing into the cytotoxic range.
mutagenic call (Test System: Ames Salmonella typhimurium, Strain/Indicator: TA97, Metabolic Activation: S-9 (DPR evaluator did not provide additional information), Method: Plate incorporation): inactive; negative, testing into the cytotoxic range.
mutagenic call (Test System: Ames Salmonella typhimurium, Strain/Indicator: TA98, Metabolic Activation: None, Method: Plate incorporation): inactive; negative, testing into the cytotoxic range.
mutagenic call (Test System: Ames Salmonella typhimurium, Strain/Indicator: TA98, Metabolic Activation: S-9 (DPR evaluator did not provide additional information), Method: Plate incorporation): inactive; negative, testing into the cytotoxic range.
mutagenic call (Test System: Ames Salmonella typhimurium, Strain/Indicator: TA100, Metabolic Activation: None, Method: Plate incorporation): inactive; negative, testing into the cytotoxic range.
mutagenic call (Test System: Ames Salmonella typhimurium, Strain/Indicator: TA100, Metabolic Activation: S-9 (DPR evaluator did not provide additional information), Method: Plate incorporation): inactive; negative, testing into the cytotoxic range.
mutagenic call (Test System: Ames Salmonella typhimurium, Strain/Indicator: TA1535, Metabolic Activation: None, Method: Plate incorporation): inactive; negative, testing into the cytotoxic range.
mutagenic call (Test System: Ames Salmonella typhimurium, Strain/Indicator: TA1535, Metabolic Activation: S-9 (DPR evaluator did not provide additional information), Method: Plate incorporation): inactive; negative, testing into the cytotoxic range.
mutagenic call (Test System: Chinese hamster ovary cells, Strain/Indicator: CHO Cells (HPRT) /6-Thioguanine, Metabolic Activation: None, Method: Preincubation): inactive; negative
mutagenic call (Test System: Chinese hamster ovary cells, Strain/Indicator: CHO Cells (HPRT)/6-Thioguanine, Metabolic Activation: S-9 (DPR evaluator did not provide additional information), Method: Preincubation): inactive; negative
mutagenic call (Test System: Male rat spermatocytes, Strain/Indicator: Thymidine incorporation, Metabolic Activation: None, Method: Autoradiography): inactive; negative, mortality and clinical signs of toxicity observed.
mutagenic call (Test System: UDS Male rat hepatocytes, Strain/Indicator: Thymidine incorporation, Metabolic Activation: None, Method: Autoradiography): inactive; negative, mortality and clinical signs of toxicity observed.
mutagenic call (Test System: UDS Rat hepatocytes, Strain/Indicator: Thymidine incorporation, Metabolic Activation: None, Method: Autoradiography): active; positive, statistically significant but no linear dose response.
